In series [1] the test system is Mus musculus. The series can be described thus: In vivo antimalarial activity against Plasmodium yoelii in mice (Mus musculus) at 96 mg/kg/day orally on day 4 expressed as percent suppression. In kind it is functional. The conditions noted are these: route oral.
Series [2] has as its system Mus musculus. Put plainly: Mean survival time against Plasmodium yoelii in mice (Mus musculus) which died during 28-day observation period at 96 mg/kg/day orally. The conditions noted are these: route oral. In kind it is functional.
Series [3] can be described thus: Number of survivals against Plasmodium yoelii in mice (Mus musculus) (out of 5) at 96 mg/kg/day orally on day 28. In kind it is organism-based. Set-up: route oral. The conditions noted are these: in vivo, po.
The test system of series [4] is Mus musculus. Put plainly: In vivo antimalarial activity against Plasmodium yoelii in mice (Mus musculus) at 96 mg/kg/day intramuscularly on day 4 expressed as percent suppression. In kind it is functional. The conditions noted are these: route intramuscular.
Series [5] deals with Mus musculus. Put plainly: Mean survival time against Plasmodium yoelii in mice (Mus musculus) which died during 28-day observation period at 96 mg/kg/day intramuscularly. In kind it is functional. The conditions noted are these: route intramuscular.
Series [6] can be described thus: Number of survivals against Plasmodium yoelii in mice (Mus musculus) (out of 5) at 96 mg/kg/day intramuscularly on day 28. The class given is organism-based. Set-up: route intramuscular. The conditions noted are these: in vivo, im.
The subject of series [7] is Mus musculus. Put plainly: In vivo antimalarial activity against Plasmodium yoelii in mice (Mus musculus) at 48 mg/kg/day orally on day 4 expressed as percent suppression. The conditions noted are these: route oral. In kind it is functional.
Series [8] is described as follows: Number of survivals against Plasmodium yoelii in mice (Mus musculus) (out of 5) at 24 mg/kg/day orally on day 28. The class given is organism-based. Set-up: route oral. The conditions noted are these: in vivo, po.
In series [9] the test system is Mus musculus. The series can be described thus: In vivo antimalarial activity against Plasmodium yoelii in mice (Mus musculus) at 24 mg/kg/day orally on day 4 expressed as percent suppression. The class given is functional. The conditions noted are these: route oral.
A short description of series [10]: Number of survivals against Plasmodium yoelii in mice (Mus musculus) (out of 5) at 48 mg/kg/day orally on day 28. In kind it is organism-based. Set-up: route oral. The conditions noted are these: in vivo, po.
The test system of series [11] is Mus musculus. The series can be described thus: Mean survival time against Plasmodium yoelii in mice (Mus musculus) which died during 28-day observation period at 24 mg/kg/day orally. In kind it is functional. The conditions noted are these: route oral.
For series [12], the system named is Mus musculus. The series can be described thus: Mean survival time against Plasmodium yoelii in mice (Mus musculus) which died during 28-day observation period at 48 mg/kg/day orally. In kind it is functional. The conditions noted are these: route oral.
For series [13], the system named is Mus musculus. The series can be described thus: In vivo antimalarial activity against Plasmodium yoelii in mice (Mus musculus) at 96 mg/kg/day intramuscularly on day 4 expressed as percent suppression; No suppression. In kind it is functional, organism-based.
Series [14] has as its system Mus musculus. Put plainly: Percent suppression against Plasmodium yoelii in mice (Mus musculus) at 96 mg/kg/day intramuscularly on day 4. In kind it is functional. The conditions noted are these: route intramuscular.
Series [15] concerns Mus musculus. Put plainly: Percent suppression against Plasmodium yoelii in mice (Mus musculus) at 24 mg/kg/day orally on day 4. The class given is functional. The conditions noted are these: route oral.

Calls of active or inactive are those of the source. The rule behind the calls is not given here.

`C=C(c1ccc(-c2ccccc2)cc1)C1COC2(CCC(=O)CC2)OO1` (stereo not given): the values for the Suppression with Mus musculus [1] and with Mus musculus [4] were 92% and 100%, respectively. Also, the results for the MST with Mus musculus [2] and in the series with Mus musculus [5] were 10.2 days and 17.7 days, respectively. Moreover, the No. of survivals is given as 0 in series [3] and 1 in series [6].
As for `C=C(c1ccc(-c2ccccc2)cc1)C1COC2(CCC(Nc3ccc(NC(C)=O)cc3)CC2)OO1` (stereo not given), the Suppression with Mus musculus [1] amounted to 49%; with Mus musculus [4], 90%. In addition, the MST in the series on Mus musculus [2] was determined as 8.4 days; in the series on Mus musculus [5] it was 11.6 days. For the same compound, the No. of survivals in series [3] and in [6] was 0 in each case.
Regarding `C=C(c1ccc(-c2ccccc2)cc1)C1COC2(CCC(Nc3cc(Cl)cc(Cl)c3)CC2)OO1` (stereo not given), the Suppression is recorded as 65% in the series on Mus musculus [1] and 46% with Mus musculus [4]. Further, the MST in the series on Mus musculus [2] was 10.2 days; with Mus musculus [5] it was 7 days. The No. of survivals in [3] and in series [6] was 0 throughout.
Consider `C=C(c1ccccc1)C1COC2(CCC(=O)CC2)OO1` (stereo not given), for which the Suppression with Mus musculus [1] amounted to 7%; in the series with Mus musculus [4], 99%. Besides, the figures for the MST with Mus musculus [2] and in the series on Mus musculus [5] were 7.2 days and 11.6 days, respectively. The No. of survivals in [3] and in series [6] was 0 each time.
For `C=C(c1ccccc1)C1COC2(CCC(Nc3ccc(OC)cc3)CC2)OO1` (stereo not given), the Suppression in the series on Mus musculus [1] is recorded as 93%; in the series on Mus musculus [4], 63%. Further, the MST in the series with Mus musculus [2] worked out at 12.4 days; in the series with Mus musculus [5] it was 10.8 days. For the same compound, the No. of survivals in [3] and in series [6] was 0 throughout.
On to `C=C(c1ccccc1)C1COC2(CCC(Nc3cccc4ccccc34)CC2)OO1` (stereo not given), for which the Suppression in the series on Mus musculus [1] is reported as 100%; in the series with Mus musculus [4], 44%. The MST with Mus musculus [2] came out at 19.5 days; in the series on Mus musculus [5], 9.2 days. Also, the No. of survivals in series [3] and in series [6] was 0 throughout.
As to `CCN(CC)CCCC(C)Nc1ccnc2cc(Cl)ccc12` (stereo not given) [CHLOROQUINE], the Suppression with Mus musculus [7] and in the series on Mus musculus [9] was 100% in each case. Moreover, the figures for the No. of survivals in [8] and in series [10] were 0 and 2, respectively. Further, the MST came out at 14.8 days with Mus musculus [11] and 17.6 days in the series on Mus musculus [12].
In the case of `C=C(c1ccccc1)C1COC2(CCC(Nc3ccccc3)CC2)OO1` (stereo not given), the Suppression with Mus musculus [1] stood at 95%; in the series with Mus musculus [4] it was 60%. The MST in the series on Mus musculus [2] is 12.2 days; in the series on Mus musculus [5], 13.4 days. Also, the No. of survivals in series [3] and in series [6] was 0 each time.
`CCO[C@H]1O[C@@H]2O[C@@]3(C)CC[C@H]4[C@H](C)CC[C@@H]([C@H]1C)[C@@]24OO3` [ARTEMOTIL]: the Suppression with Mus musculus [7] and in the series with Mus musculus [9] was 100% throughout. The No. of survivals in [8] is given as 1; in series [10], 5. Also, the MST with Mus musculus [11] was 17.75 days; in the series on Mus musculus [12] it was over 28 days.
As for `C=C(c1ccccc1)C1COC2(CCC(Nc3cc(Cl)cc(Cl)c3)CC2)OO1` (stereo not given), the Suppression in the series on Mus musculus [1] was determined as 100%; in the series on Mus musculus [4], 62%. Moreover, the MST in the series with Mus musculus [2] was determined as 16.5 days; in the series on Mus musculus [5], 12.4 days. Moreover, the No. of survivals in [3] came out at 2; in [6], 0.
Consider `C=C(c1ccc(-c2ccccc2)cc1)C1COC2(CCC(Nc3ccc(OC)cc3)CC2)OO1` (stereo not given), for which the Suppression came to 94% in the series with Mus musculus [1] and 57% in the series on Mus musculus [4]. Besides, the MST turned out to be 11.1 days with Mus musculus [2] and 8.4 days with Mus musculus [5]. Moreover, the No. of survivals in [3] and in [6] was 0 each time.
With `C=C(c1ccccc1)C1COC2(CCC(Nc3ccc(NC(C)=O)cc3)CC2)OO1` (stereo not given), the values for the Suppression in the series with Mus musculus [1] and with Mus musculus [4] were 77% and 98%, respectively. Besides, the figures for the MST with Mus musculus [2] and with Mus musculus [5] were 9.8 days and 9 days, respectively. The No. of survivals in series [3] and in series [6] was 0 each time.
As for `C=C(c1ccc(-c2ccccc2)cc1)C1COC2(CCC(Nc3cccc4ccccc34)CC2)OO1` (stereo not given), the Suppression with Mus musculus [1] is on record as 100%. Also, the figures for the MST in the series on Mus musculus [2] and in the series with Mus musculus [5] were 14.8 days and 6.6 days, respectively. In addition, the No. of survivals in series [3] and in series [6] was 0 each time. Besides, the Suppression result in the series on Mus musculus [13] is “inactive”.
As to `C=C(c1ccc(-c2ccccc2)cc1)C1COC2(CCC(Nc3ccccc3)CC2)OO1` (stereo not given), the Suppression turned out to be 100% in the series on Mus musculus [7], 100% in the series on Mus musculus [1], 72% with Mus musculus [14] and 98% with Mus musculus [15]. In addition, the MST in the series with Mus musculus [2] is over 28 days; in the series with Mus musculus [5], 10.7 days; with Mus musculus [11], 13.4 days; in the series with Mus musculus [12], 14.5 days. The No. of survivals in [3] is 5; in series [8], 0; in series [6], 0; in series [10] it was 3.

The values are drawn from ChEMBL document CHEMBL1146839, “Orally active amino functionalized antimalarial 1,2,4-trioxanes” (Bioorg Med Chem Lett, 2004).
